Biological target: bovine serum albumin (Bos taurus, UniProt P02769)
Assay: Fluorescence enhancement in presence of bovine serum albumin and SDS in solution (FIG. 5)
Type: physicochemical
Conditions: 10 mM Tris, pH 8.0, 200 μg/mL bovine serum albumin
Description: FIG. 5: Fluorescence enhancement of Compound 9 in the presence of bovine serum albumin and sodium dodecyl sulfate in solution. Dye in 10 mM Tris, pH 8.0, 200 μg/mL bovine serum albumin, 0.05% SDS was compared with dye in 10 mM Tris, pH 8.0, 200 μg/mL bovine serum albumin, dye in 10 mM Tris, pH 8.0, 0.05% SDS or simply dye in 10 mM Tris, pH 8.0. A 7-fold enhancement in fluorescence emission of the dye in the presence of protein alone was observed relative to the dye in buffer alone. A 40-fold enhancement of fluorescence emission of the dye in the presence of anionic detergent and protein was observed relative to dye in buffer alone.

Chain of bovine serum albumin (P02769 25-607): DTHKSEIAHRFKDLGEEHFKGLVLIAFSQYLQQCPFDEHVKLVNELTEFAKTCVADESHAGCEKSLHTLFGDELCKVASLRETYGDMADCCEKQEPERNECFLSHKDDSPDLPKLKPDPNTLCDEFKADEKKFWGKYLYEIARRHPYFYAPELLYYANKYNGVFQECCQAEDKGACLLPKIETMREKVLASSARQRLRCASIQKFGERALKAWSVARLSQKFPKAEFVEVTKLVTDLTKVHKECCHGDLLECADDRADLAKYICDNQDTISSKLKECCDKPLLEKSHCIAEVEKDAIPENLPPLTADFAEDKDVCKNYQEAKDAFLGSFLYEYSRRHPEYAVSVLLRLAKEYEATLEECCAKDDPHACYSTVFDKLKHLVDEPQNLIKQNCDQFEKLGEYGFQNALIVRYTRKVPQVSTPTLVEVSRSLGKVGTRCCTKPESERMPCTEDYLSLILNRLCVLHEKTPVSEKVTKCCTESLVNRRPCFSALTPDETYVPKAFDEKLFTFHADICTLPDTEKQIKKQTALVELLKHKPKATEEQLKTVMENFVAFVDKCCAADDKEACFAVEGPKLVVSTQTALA

SMILES: CCn1c2ccccc2c2cc(/C=C/c3cc[n+](CCCCS(=O)(=O)[O-])c4ccccc34)ccc21 [Compound 9]
- Enhancement in fluorescence emission, protein alone relative to dye in buffer alone: 7 fold
- Enhancement of fluorescence emission, anionic detergent and protein relative to dye in buffer alone (0.05% SDS): 40 fold

Reference: patent publication US6579718B1, “Carbazolylvinyl dye protein stains” (Molecular Probes, Inc., priority 2000, dated 2003)
